Measurements reported in ChEMBL document CHEMBL2046359, “Novel tricyclic indeno[2,1-d]pyrimidines with dual antiangiogenic and cytotoxic activities as potent antitumor agents” (Bioorg Med Chem, 2012).
pIC50: −log10 of the molar value. Active and inactive are the calls of the source. No cut-off for these calls is given here.

Tests used:
A-431 = assay: Antiproliferative activity against human A431 cells after 48 hrs by CYQUANT assay; assay type: functional, cell-based; details: A-431, 48 h
[1] = Antiangiogenic activity in VEGF/bFGF-stimulated chicken embryo after 48 hrs by CAM assay; assay type: functional, Gallus gallus
[2] = biological target: Platelet-derived growth factor receptor beta (Homo sapiens, UniProt P09619); assay: Inhibition of PDGFRbeta in human SF539 cells pretreated for 60 mins measured after 10 mins by ELISA
Sequence of Platelet-derived growth factor receptor beta (P09619 whole entry): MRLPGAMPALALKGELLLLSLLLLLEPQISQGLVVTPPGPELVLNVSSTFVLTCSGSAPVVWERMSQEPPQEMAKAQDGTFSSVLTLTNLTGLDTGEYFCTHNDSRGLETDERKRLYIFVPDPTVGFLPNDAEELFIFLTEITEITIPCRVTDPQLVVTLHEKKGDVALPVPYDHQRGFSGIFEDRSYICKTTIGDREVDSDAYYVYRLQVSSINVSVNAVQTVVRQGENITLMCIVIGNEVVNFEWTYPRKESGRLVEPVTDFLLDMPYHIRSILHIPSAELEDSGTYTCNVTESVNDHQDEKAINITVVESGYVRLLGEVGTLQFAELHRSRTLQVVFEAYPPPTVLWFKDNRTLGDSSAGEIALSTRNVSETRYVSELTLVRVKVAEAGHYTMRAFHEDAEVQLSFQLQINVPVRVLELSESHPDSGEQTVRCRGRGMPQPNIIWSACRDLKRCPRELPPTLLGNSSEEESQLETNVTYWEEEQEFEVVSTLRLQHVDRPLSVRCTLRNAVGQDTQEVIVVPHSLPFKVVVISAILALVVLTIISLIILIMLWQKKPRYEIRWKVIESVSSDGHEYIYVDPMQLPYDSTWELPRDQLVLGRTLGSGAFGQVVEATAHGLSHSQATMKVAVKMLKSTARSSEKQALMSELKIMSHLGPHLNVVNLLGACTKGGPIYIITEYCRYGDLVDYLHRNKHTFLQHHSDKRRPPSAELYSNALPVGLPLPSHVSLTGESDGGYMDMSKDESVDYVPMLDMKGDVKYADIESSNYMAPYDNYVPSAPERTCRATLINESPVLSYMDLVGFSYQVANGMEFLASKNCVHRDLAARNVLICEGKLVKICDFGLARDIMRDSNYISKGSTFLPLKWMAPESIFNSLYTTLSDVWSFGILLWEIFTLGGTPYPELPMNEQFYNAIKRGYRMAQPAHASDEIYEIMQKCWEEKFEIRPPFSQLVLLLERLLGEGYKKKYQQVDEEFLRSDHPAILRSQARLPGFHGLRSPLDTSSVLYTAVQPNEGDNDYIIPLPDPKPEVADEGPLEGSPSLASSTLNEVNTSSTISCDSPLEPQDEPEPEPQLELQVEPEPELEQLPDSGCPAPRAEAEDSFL

[3] = biological target: Vascular endothelial growth factor receptor 2 (Homo sapiens, UniProt P35968); assay type: cell-based, U-251
Sequence of Vascular endothelial growth factor receptor 2 (P35968 whole entry): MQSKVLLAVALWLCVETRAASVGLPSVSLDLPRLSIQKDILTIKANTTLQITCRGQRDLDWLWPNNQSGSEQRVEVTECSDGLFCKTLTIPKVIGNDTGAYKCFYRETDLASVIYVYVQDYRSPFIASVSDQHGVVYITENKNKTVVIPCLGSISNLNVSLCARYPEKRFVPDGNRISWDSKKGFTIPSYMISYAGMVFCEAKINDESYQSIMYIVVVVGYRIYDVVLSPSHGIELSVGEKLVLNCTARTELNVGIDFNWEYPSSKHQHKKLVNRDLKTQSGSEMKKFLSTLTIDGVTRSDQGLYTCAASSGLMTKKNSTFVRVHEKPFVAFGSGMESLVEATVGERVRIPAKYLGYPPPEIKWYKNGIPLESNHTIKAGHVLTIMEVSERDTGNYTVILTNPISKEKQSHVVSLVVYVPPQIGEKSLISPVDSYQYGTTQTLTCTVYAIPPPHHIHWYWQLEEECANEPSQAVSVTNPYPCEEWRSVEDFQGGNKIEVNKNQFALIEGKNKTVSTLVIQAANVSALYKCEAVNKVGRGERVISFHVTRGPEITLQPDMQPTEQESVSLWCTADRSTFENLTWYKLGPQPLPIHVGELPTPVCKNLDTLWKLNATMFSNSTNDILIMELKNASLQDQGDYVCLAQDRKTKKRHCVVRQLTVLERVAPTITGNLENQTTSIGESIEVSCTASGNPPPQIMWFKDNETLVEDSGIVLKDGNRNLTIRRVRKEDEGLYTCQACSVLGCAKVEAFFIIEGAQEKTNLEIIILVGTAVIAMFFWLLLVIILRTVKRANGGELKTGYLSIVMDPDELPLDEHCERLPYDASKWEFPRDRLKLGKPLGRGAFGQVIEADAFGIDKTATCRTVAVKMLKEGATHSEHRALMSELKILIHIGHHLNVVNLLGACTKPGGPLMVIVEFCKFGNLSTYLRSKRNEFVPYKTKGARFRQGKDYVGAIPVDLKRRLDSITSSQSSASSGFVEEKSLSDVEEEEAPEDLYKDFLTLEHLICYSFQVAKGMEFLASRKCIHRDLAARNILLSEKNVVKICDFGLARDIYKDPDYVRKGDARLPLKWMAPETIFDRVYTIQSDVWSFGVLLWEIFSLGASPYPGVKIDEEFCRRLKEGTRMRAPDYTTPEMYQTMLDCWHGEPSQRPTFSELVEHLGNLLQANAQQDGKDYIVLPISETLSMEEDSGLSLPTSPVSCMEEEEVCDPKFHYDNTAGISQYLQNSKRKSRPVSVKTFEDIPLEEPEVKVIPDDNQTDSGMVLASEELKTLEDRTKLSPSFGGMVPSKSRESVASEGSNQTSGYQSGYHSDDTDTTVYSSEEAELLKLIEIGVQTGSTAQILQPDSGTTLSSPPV

[4] = biological target: Epidermal growth factor receptor (Homo sapiens, UniProt P00533); assay type: cell-based, A-431
Sequence of Epidermal growth factor receptor (P00533 whole entry): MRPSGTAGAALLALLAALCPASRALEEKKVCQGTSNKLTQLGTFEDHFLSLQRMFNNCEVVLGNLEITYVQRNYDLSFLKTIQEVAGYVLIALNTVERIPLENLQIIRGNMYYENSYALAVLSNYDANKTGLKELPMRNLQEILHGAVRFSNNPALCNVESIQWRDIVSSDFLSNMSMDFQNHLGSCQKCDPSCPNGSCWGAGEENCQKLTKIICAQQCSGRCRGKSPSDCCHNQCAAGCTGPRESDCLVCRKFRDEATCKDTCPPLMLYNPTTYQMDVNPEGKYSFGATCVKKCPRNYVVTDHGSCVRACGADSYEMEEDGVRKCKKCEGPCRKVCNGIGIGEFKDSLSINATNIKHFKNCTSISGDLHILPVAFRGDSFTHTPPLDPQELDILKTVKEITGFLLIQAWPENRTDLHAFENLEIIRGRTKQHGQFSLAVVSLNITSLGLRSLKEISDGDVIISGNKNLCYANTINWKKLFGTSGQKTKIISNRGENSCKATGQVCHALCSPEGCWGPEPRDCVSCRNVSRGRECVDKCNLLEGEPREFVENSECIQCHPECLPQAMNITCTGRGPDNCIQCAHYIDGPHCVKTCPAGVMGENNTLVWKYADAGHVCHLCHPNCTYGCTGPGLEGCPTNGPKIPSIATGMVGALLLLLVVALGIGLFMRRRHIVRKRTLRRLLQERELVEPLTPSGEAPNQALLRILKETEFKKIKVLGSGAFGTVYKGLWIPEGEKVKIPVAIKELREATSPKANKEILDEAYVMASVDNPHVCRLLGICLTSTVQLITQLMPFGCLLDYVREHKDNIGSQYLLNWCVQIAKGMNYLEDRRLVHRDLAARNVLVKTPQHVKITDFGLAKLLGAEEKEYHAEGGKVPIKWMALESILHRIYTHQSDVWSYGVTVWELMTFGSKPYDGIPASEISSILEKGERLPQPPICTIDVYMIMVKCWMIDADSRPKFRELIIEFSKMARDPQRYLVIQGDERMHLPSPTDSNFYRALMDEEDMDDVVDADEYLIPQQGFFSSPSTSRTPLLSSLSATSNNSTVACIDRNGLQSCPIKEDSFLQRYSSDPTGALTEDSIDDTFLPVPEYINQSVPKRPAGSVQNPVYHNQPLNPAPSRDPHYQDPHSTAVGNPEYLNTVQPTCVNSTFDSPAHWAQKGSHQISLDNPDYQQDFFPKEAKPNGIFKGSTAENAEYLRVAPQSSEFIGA

[5] = biological target: T1, Dihydroorotate dehydrogenase (Plasmodium falciparum, UniProt Q54A96); assay: Inhibition of Plasmodium falciparum DHODH
T1 sequence (Q54A96 whole entry): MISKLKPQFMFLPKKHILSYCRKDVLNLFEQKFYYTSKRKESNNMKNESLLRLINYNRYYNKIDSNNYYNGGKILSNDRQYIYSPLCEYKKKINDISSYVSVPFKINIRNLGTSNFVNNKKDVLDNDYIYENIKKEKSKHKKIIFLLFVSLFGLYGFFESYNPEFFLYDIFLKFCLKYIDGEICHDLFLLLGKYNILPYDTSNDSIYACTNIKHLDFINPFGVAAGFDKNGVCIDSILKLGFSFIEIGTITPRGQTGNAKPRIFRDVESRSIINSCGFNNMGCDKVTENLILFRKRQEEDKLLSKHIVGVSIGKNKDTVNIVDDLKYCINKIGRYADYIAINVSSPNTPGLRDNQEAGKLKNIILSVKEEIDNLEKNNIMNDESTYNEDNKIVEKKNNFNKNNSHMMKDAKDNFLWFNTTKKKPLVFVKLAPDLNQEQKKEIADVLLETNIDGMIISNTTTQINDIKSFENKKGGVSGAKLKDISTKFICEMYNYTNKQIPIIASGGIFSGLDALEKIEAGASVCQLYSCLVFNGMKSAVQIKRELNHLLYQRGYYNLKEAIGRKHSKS

[6] = biological target: Dihydroorotate dehydrogenase (quinone), mitochondrial (Homo sapiens, UniProt Q02127); assay: Inhibition of human DHODH
Sequence of Dihydroorotate dehydrogenase (quinone), mitochondrial (Q02127 whole entry): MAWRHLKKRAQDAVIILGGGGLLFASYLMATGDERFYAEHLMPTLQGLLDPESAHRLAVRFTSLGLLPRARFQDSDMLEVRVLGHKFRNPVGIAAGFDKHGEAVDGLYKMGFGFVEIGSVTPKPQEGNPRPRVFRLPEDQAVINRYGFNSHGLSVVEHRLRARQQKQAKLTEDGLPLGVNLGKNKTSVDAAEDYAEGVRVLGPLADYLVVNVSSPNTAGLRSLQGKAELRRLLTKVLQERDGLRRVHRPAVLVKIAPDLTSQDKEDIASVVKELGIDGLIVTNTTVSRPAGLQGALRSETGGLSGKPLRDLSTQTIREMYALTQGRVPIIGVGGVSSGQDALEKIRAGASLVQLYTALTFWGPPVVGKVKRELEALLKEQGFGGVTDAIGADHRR

B16-F10 [7] = assay: Antitumor activity against mouse B16F10 cells allografted in NCr nu/nu mouse assessed as inhibition of tumor angiogenesis at 35 mg/kg, ip administered three times weekly for 2 weeks
B16-F10 [8] = assay: Antitumor activity against mouse B16F10 cells allografted in NCr nu/nu mouse assessed as tumor growth reduction at 35 mg/kg, ip administered three times weekly for 2 weeks
B16-F10 [9] = assay: Antitumor activity against mouse B16F10 cells allografted in NCr nu/nu mouse assessed as decrease in tumor metastasis at 35 mg/kg, ip administered three times weekly for 2 weeks
[10] = biological target: T2, Bifunctional dihydrofolate reductase-thymidylate synthase (Toxoplasma gondii, UniProt Q07422); assay: Inhibition of Toxoplasma gondii DHFR
T2 sequence (Q07422 whole entry): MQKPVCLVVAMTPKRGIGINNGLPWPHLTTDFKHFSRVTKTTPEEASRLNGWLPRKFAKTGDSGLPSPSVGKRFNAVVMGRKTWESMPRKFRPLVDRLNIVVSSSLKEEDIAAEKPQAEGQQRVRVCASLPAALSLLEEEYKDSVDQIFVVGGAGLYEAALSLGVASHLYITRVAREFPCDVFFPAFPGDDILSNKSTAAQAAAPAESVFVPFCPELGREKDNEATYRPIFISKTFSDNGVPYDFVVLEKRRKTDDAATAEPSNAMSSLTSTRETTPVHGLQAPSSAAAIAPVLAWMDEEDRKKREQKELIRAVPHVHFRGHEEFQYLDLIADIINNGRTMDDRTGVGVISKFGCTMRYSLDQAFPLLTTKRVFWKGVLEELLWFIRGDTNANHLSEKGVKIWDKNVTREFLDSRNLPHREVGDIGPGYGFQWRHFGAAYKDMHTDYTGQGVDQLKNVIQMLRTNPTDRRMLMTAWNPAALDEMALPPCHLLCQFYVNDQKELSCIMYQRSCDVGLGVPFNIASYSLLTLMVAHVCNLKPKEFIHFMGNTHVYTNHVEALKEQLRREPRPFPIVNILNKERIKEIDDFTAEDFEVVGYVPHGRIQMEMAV

[11] = Inhibition of Escherichia coli thymidylate synthase
Dihydrofolate reductase = biological target: T3, Dihydrofolate reductase (Homo sapiens, UniProt P00374)
T3 sequence (P00374 whole entry): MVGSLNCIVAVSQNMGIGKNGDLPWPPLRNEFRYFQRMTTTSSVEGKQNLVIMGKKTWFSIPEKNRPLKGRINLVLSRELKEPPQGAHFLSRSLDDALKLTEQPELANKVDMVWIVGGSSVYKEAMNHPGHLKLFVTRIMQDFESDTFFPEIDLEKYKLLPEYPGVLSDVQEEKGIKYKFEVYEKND

Thymidylate synthase = Thymidylate synthase (Homo sapiens, UniProt P04818); assay: Inhibition of human thymidylate synthase
Sequence of Thymidylate synthase (P04818 whole entry): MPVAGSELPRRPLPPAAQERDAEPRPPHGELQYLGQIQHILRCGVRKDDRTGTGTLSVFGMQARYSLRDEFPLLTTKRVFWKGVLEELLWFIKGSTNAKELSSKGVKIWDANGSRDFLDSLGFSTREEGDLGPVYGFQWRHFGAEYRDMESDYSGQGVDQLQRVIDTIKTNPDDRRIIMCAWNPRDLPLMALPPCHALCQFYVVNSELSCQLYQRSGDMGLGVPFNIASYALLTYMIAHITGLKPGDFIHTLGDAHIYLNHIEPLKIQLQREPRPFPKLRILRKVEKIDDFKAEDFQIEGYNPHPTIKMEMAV

[12] = biological target: T2, Bifunctional dihydrofolate reductase-thymidylate synthase; assay: Inhibition of Toxoplasma gondii thymidylate synthase

Nc1nc2c(c(Nc3ccc(C(F)(F)F)cc3)n1)-c1ccccc1C2
pIC50 (A-431): 3.51 | pIC50 [1]: 5.09 | pIC50 [2]: 4.64 | pIC50 [3]: < 3.70 | pIC50 [4]: < 3.52

Nc1nc2c(c(Nc3ccccc3)n1)-c1ccccc1C2
pIC50 (A-431): 5.31 | pIC50 [5]: < 3.70 | pIC50 [4]: < 3.70 | pIC50 [6]: < 3.70

Nc1nc2c(c(Nc3cccc(Cl)c3)n1)-c1ccccc1C2
pIC50 (A-431): 3.63 | pIC50 [2]: < 3.30

Nc1nc2c(c(Nc3cccc(F)c3)n1)-c1ccccc1C2
pIC50 (A-431): 5.01 | pIC50 [5]: < 3.70 | pIC50 [4]: < 3.52 | pIC50 [6]: < 3.70

Cc1[nH]c(/C=C2\C(=O)Nc3ccccc32)c(C)c1CCC(=O)O
Activity (B16-F10 [7]): Active | growth inhibition (GI) (B16-F10 [8]): Active | Activity (B16-F10 [9]): Active

Nc1nc2c(c(Nc3cccc(Br)c3)n1)-c1ccccc1C2
pIC50 (A-431): < 3.30 | pIC50 [5]: < 3.70 | pIC50 [10]: < 4.85 | pIC50 [11]: < 4.92 | pIC50 (Dihydrofolate reductase): < 4.85 | pIC50 [3]: < 3.70 | pIC50 (Thymidylate synthase): < 4.92 | pIC50 [6]: < 3.70 | pIC50 [12]: < 4.92

Nc1nc2c(c(Nc3ccc(F)c(Cl)c3)n1)-c1ccccc1C2
pIC50 (A-431): 3.80 | pIC50 [10]: < 4.80 | pIC50 [11]: < 4.89 | pIC50 (Dihydrofolate reductase): < 4.80 | pIC50 [4]: < 3.70 | pIC50 (Thymidylate synthase): < 4.89 | pIC50 [12]: < 4.89
